In patent EP0306167A2, “Stabilization of enzymes by inhibiting proteolytic enzyme contaminants” (TECHNICON INSTRUMENTS CORPORATION(a Delaware corporation), priority 1987, dated 1989):
“Also recorded” adds a separate entry of the source. Like-named read-outs stand apart in the source and are kept apart here.

Assays:
[1] = tested on: phosphoenol pyruvate carboxylase; test: Stability of phosphoenol pyruvate carboxylase on storage with protease inhibitors (activity assay on TECHNICON RA-1000); assay type: biochemical; conditions: for Percent Activity Remaining at Time (hrs.): about 20 mg/ml enzyme, Benzamidine 4mM, p-Amino benzamidine 4mM, TPCK 0.5mM, Soya Bean Trypsin Inhibitor 10 mg/ml, Egg white Trypsin Inhibitor 10 mg/ml, BSA 20mg/ml, Aprotinin 0.5 mg/ml, PMSF 1 mM
Protocol: The activity assays to determine the stability of phosphoenol pyruvate carboxylase were done on a TECHNICON RA-1000 clinical analyzer in accordance with established protocols for such analysis. (TECHNICON RA-1000 is a registered trademark of Technicon Instruments Corporation, Tarrytown, N.Y.) In accordance with such protocol, the enzyme solution, R₂, was placed in the sample cup. The other constituents of the assay mixture, R₁, were placed in the reagent boat. 10 µl of R₂ were mixed with 350 µl of R₁. The reaction was done at 37°C and there was a 30 second incubation period before the readings were taken. The reported activity remaining refers to the percentage of the activity determined when fresh solutions were made initially.
The solid enzyme samples were dissolved in 50 mM Hepes, pH 7.0 containing 0.1% benzoic and .01% gentamicin (R₂). The stability study was done in R₂ containing about 20 mg/ml enzyme at room temperature. The ratio of soya bean trypsin inhibitor to phosphoenol pyruvate by weight mg/ml was 10:20. The specific activity of soya bean was 7000 BAEE inhibitor units/mg and that of phosphoenol pyruvate was one unit/mg. The components of the activity assay were in R₁ as NADH, 1.3 x 10⁻⁴M; phosphoenol pyruvate, 2.5 x 10⁻³M; magnesium acetate, 1.06 x 10⁻²M and NaHCO₃, 5 x 10⁻³M; were in 104 mM tris-acetate pH 8.3 (at room temperature).
The samples were stored at room temperature in 50 mM Hepes buffer pH 7.0 containing 0.1% benzoate acid .01% gentamycin. […]

PGM/PAGM enzyme solution = test: Stability of PGM/PAGM enzyme solution on storage with protease inhibitors (coupled glucose-6-phosphate dehydrogenase rate assay at 340 nm); assay type: biochemical, Porcine; conditions: for time enzyme activity was protected / stabilizing effect compared between inhibitors (in words): DEAE-Tris acryl purified preparation, 4°C; for time enzyme activity was protected: 50 mM imidazole chloride pH 7.5, p-aminobenzamidine 5mM, benzamidine 5mM; for stabilizing effect compared between inhibitors (in words): pH 7.5, aprotinin .5 mg/ml, leupeptin 0.5 mg/ml, α,α′-bipyridal 2 mM; for effect on PGM/PAGM activity (in words): TPCK 2mM
Protocol: The presence of proteases was detected pursuant to the protocol discussed above. The quantitative assay for protease activity was done with N-α - benzoyl-L-arginine-p-nitroanalide as a substrate by a published procedure (H. Fritz, I. Truntschold and E. Werle; "Methods of Enzymatic Analysis", Ed. H. Bergmeyer, Vol. II, Academic Press, N.4. 1974). The method consist of (1) 0.2M triethanolamine buffer (pH 7.8) with 20 mM CaCl₂, (2) trypsin standard in 1 mM HCl, (3) substrate solution, 2.2 mM in water. The sensitivity can be enhanced four-fold if the concentration of the substrate was increased five times. A clear solution of the substrate was obtained by placing it in a boiling water bath for 5 minutes. The reaction mixture consisted of a .675 ml buffer and 0.325 ml substrate solution. The rate was measured at 405 nm at 37°C on a DU 8 spectrophotometer from Beckman Instruments, Inc. It was possible to detect protease activity equivalent to 1 mg/L trypsin when the standard trypsin was activity of 11000 u/mg with substrate N-α-benzoyl-L-arginine p-nitroanalide. The activity of the PGM/PAGM enzyme solution was determined using the following reaction mixture. NAD⁺, 10⁻³M; glucose-1-phosphate, 2x10⁻⁴M; glucose-1,6-diphosphate, 10⁻⁵M; Mg Acetate, 2 x 10⁻³M; EDTA, 2 x 10⁻⁴M and 1 u/ml glucose-6-phosphate dehydrogenase in 50 mM imidazole acetate, pH 7.5. The reaction was started by adding an aliquot of the enzyme solution and the rate was measured 37°C at 340 nm on a DU-8 spectro- photometer. This method is essentially similar to the literature procedures (W. Ray and E. Peck, The Enzymes, 6, 407, 1972. H. Bergmeyer, "Methods of Enzymatic Analysis" Ed. H. Bergmeyer Vol. I, Academic Press, N.Y. 1974).
A series of experiments were done to determine the stabilizing effect of various inhibitors. In one experiment the enzyme preparation included was 30-70% ammonium sulfate fraction. The effects of soya bean trypsin inhibitor (10 mg/ml), tosyl phenyl chloromethyl ketone (TPCK) (2mM) and α-antitrypsin inhibitor (2 mg/ml) were studied at pH 5.0 and 7.5, in 50 mM imidazole acetate buffer; 0.2 mM EDTA, 10 mM magnesium acetate. The stability was done at two pH values as the formation and dissociation of the inhibitor complex with trypsin is pH dependent. […] PAGM enzyme may also have serine residues at the active site. […] There was some protection afforded by α-antitrypsin inhibitor over longer periods of time at pH 7.5.
In another experiment, the enzyme preparation after ammonium sulfate fractionation was purified through DEAE-Tris acryl column chromatography. […] These trace amounts of proteases were sufficient to cause denaturation of the enzyme. A stability study using various inhibitors of proteases: aprotinin (.5 mg/ml), soybean trypsin inhibitor (5 mg/ml), p-aminobenzamidine (5mM), benzamidine (5mM), α,α′-bipyridal (2 mM) and leupeptin (0.5 mg/ml) was done. The enzyme was stored at 4°C in 50 mM imidazole chloride, 2 mM Mg acetate and .2 mM EDTA, pH 7.5. The activity was assayed at different times. […] The enzymes were stable in the presence of soya bean trypsin inhibitor for one week.

[2] = 20 Hrs, absence of (NH₄)₂SO₄, PMSF 1mM, α-Antitrypsin Inhibitor 5 mg/ml, p-Nitrophenyl-p-Guanidinobenzoate 0.1mg/ml, Ovomucoid 10 mg/ml, D-Tryptophan methyl ester 5mM, 4-Phenyl butylamine 10mM, D-Arginine 10mM, D-phenylalanine 5mM, control 35
[3] = 20 Hrs, in presence of (NH₄)₂SO₄ (50 mM), inhibitor concentrations as without salt (PMSF 1mM, α-Antitrypsin Inhibitor 5 mg/ml, p-Nitrophenyl-p-Guanidinobenzoate 0.1mg/ml, Ovomucoid 10 mg/ml, D-Tryptophan methyl ester 5mM)
[4] = 25 Hrs, absence of (NH₄)₂SO₄, PMSF 1mM, α-Antitrypsin Inhibitor 5 mg/ml, p-Nitrophenyl-p-Guanidinobenzoate 0.1mg/ml, Ovomucoid 10 mg/ml, D-Tryptophan methyl ester 5mM, 4-Phenyl butylamine 10mM, D-Arginine 10mM, D-phenylalanine 5mM, control 26
[5] = 25 Hrs, in presence of (NH₄)₂SO₄ (50 mM), inhibitor concentrations as without salt (PMSF 1mM, α-Antitrypsin Inhibitor 5 mg/ml, p-Nitrophenyl-p-Guanidinobenzoate 0.1mg/ml, Ovomucoid 10 mg/ml, D-Tryptophan methyl ester 5mM)
[6] = 2.5 hrs at room temperature in R2 (50 mM Hepes pH 7.0), control 80
[7] = 5 hrs at room temperature in R2 (50 mM Hepes pH 7.0), control 80
[8] = 23 hrs at room temperature in R2 (50 mM Hepes pH 7.0), control 25
[9] = NaCl up to 200 mM replacing (NH₄)₂SO₄ with 10 mg/ml ovomucoid, phosphoenol pyruvate 5 mM

Structure (SMILES) | Percent Activity Remaining at Time (Hrs.) [1, 2] [%] | Percent Activity Remaining at Time (Hrs.) [1, 4] [%] | Percent Activity Remaining at Time (hrs.) [1, 6] [%] | Percent Activity Remaining at Time (hrs.) [1, 7] [%] | Percent Activity Remaining at Time (hrs.) [1, 8] [%] | also measured
COC(=O)[C@H](N)Cc1c[nH]c2ccccc12 [D-Tryptophan methyl ester] | 32 | 26 |  |  |  | Percent Activity Remaining at Time (Hrs.) [1, 3]: 68%; Percent Activity Remaining at Time (Hrs.) [1, 5]: 71%
N=C(N)c1ccccc1 [Benzamidine] |  |  | 83 | 83 | 32 | time enzyme activity was protected (PGM/PAGM enzyme solution): 5 days
CC(=O)N[C@@H](CC(C)C)C(=O)N[C@@H](CC(C)C)C(=O)N[C@H](C=O)CCCNC(=N)N [Leupeptin] |  |  |  |  |  | stabilizing effect compared between inhibitors (in words) (PGM/PAGM enzyme solution): equally effective
N[C@H](Cc1ccccc1)C(=O)O [D-phenylalanine] | 57 | 51 |  |  |  | 
N=C(N)c1ccc(N)cc1 [p-Amino benzamidine] |  |  | 75 | 75 | 28 | time enzyme activity was protected (PGM/PAGM enzyme solution): 14 days
Cc1ccc(S(=O)(=O)N[C@@H](Cc2ccccc2)C(=O)CCl)cc1 [TPCK] |  |  | 74 | 68 | 28 | effect on PGM/PAGM activity (in words) (PGM/PAGM enzyme solution; pH 5.0, 30-70% ammonium sulfate fraction): destroyed the activity sooner than the control; effect on PGM/PAGM activity (in words) (PGM/PAGM enzyme solution; pH 7.5, 30-70% ammonium sulfate fraction, soya bean trypsin inhibitor 10 mg/ml, α-antitrypsin inhibitor 2 mg/ml): did not show any additional inactivation
C=C(OP(=O)(O)O)C(=O)O [phosphoenol pyruvate] |  |  |  |  |  | stabilizing effect on phosphoenol pyruvate carboxylase (in words) [1, 9]: unstable
N=C(N)Nc1ccc(C(=O)Oc2ccc([N+](=O)[O-])cc2)cc1 [p-Nitrophenyl-p-Guanidinobenzoate] | 42 | 36 |  |  |  | Percent Activity Remaining at Time (Hrs.) [1, 3]: 60%; Percent Activity Remaining at Time (Hrs.) [1, 5]: 57%
c1ccc(-c2ccccn2)nc1 [α,α′-bipyridal] |  |  |  |  |  | stabilizing effect compared between inhibitors (in words) (PGM/PAGM enzyme solution): least effective
NCCCCc1ccccc1 [4-Phenyl butylamine] | 57 | 51 |  |  |  | 
N=C(N)NCCC[C@@H](N)C(=O)O [D-Arginine] | 30 | 24 |  |  |  | 
O=S(=O)(F)Cc1ccccc1 [PMSF, phenyl methyl sulfonyl fluoride] | 71 | 61 | 87 | 89 | 56 | Percent Activity Remaining at Time (Hrs.) [1, 3]: 90%; Percent Activity Remaining at Time (Hrs.) [1, 5]: 88%; stabilizing effect on phosphoenol pyruvate carboxylase (in words) [1, 9]: especially effective; also recorded: most effective stabilizer; original activity ([1]; PMSF in combination with ammonium sulfate, for 24 hours): 88%; Effectiveness ([1]; protection of PEPC activity, comparison of all effective inhibitors): 24 to 48 h
[Cl-].[Na+] [NaCl] |  |  |  |  |  | stabilizing effect on phosphoenol pyruvate carboxylase (in words) [1]: negligible
